Data as given in US20250171462A1 (NICO Therapeutics, Inc., priority 2022, published 2025).
Like-named read-outs stand apart in the source and are kept apart here.

Molecular target: T1, full-length SARM1 (FL-SARM1) (Homo sapiens, UniProt Q6SZW1)
T1 sequence (Q6SZW1 28-724): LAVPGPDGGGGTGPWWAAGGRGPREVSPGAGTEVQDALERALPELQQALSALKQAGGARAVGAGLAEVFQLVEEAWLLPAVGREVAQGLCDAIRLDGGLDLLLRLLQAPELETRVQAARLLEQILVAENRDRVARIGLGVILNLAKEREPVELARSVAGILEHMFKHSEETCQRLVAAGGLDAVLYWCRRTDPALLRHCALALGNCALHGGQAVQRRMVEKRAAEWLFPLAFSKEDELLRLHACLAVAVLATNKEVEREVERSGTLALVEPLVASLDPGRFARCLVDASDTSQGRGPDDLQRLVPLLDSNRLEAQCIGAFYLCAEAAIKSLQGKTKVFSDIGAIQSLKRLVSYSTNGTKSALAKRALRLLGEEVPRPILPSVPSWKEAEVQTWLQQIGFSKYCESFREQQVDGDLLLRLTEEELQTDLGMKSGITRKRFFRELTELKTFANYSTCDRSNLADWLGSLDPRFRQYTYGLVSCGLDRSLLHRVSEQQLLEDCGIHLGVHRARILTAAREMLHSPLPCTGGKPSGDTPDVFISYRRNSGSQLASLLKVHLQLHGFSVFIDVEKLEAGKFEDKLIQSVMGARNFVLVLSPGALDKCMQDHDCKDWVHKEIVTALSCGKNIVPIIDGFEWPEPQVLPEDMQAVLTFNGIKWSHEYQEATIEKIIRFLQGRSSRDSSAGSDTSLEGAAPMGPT
Experiment: FL-SARM1 cellular lysate assay (NAD/NADH-Glo detection of remaining NAD+, NMN-activated)

[1] = Activity (IC50 class), 11 point curve
[2] = Activity (μM) (IC50), 11 point curve
[3] = read-out: Activity (IC50 class), 11 point curve

| Compound | IC50 [1] [µM] | IC50 [2] [µM] | IC50 [3] [µM] |
| --- | --- | --- | --- |
| Cc1ccc(NC(=O)N2C3CC2C(=O)N(C)C3)cc1-c1ccccn1 (centres unmarked) [Example 22, 3-methyl-N-(4-methyl-3-(pyridin-2-yl)phenyl)-2-oxo-3,6-diazabicyclo[3.1.1]heptane-6-carboxamide] | 1 to 10 | 2 |  |
| Cc1ccc(NC(=O)N2CCCC2C2CC2)cc1-c1ccccn1 (racemic) [Example 92, 2-cyclopropyl-N-(4-methyl-3-pyridin-2-ylphenyl)pyrrolidine-1-carboxamide] | 1 to 10 | 2.3 |  |
| Cc1ccc(NC(=O)[C@H]2CC[C@H](C)N2c2ccccn2)cc1-c1ncc(F)cn1 [Example 281, (2R,5S)-N-[3-(5-fluoropyrimidin-2-yl)-4-methylphenyl]-5-methyl-1-pyridin-2-ylpyrrolidine-2-carboxamide] | 1 to 10 | 1.3 |  |
| Cc1ccc(NC(=O)N2C3C[C@H](C)C[C@@H]2C3)cc1-c1cc(F)cnn1 [Example 220, cis-N-[3-(5-fluoropyridazin-3-yl)-4-methylphenyl]-3-methyl-6-azabicyclo[3.1.1]heptane-6-carboxamide] |  | 0.1 | 0.0001 to 1 |
| Cc1ccc(NC(=O)[C@@H]2[C@@H]3CC[C@H]2N(CC(F)(F)F)C3)cc1-c1ccccn1 (single isomer, unassigned) [Example 104, trans-N-(4-methyl-3-(pyridin-2-yl)phenyl)-2-(2,2,2-trifluoroethyl)-2-azabicyclo[2.2.1]heptane-7-carboxamide] | 1 to 10 | 2.6 |  |
| Cc1ccc(NC(=O)N2[C@@H]3C[C@@H](C)C[C@H]2C3)cc1-c1cc(OCF)cnn1 [Example 185, cis-N-(3-(5-(fluoromethoxy)pyridazin-3-yl)-4-methylphenyl)-3-methyl-6-azabicyclo[3.1.1]heptane-6-carboxamide] |  | 0.05 | 0.0001 to 1 |
| Cc1ccc(NC(=O)N2[C@@H]3CC(C)C[C@H]2C3)cc1-c1ncccc1C (mixture of isomers) [Example 31, 3-methyl-N-(4-methyl-3-(3-methylpyridin-2-yl)phenyl)-6-azabicyclo[3.1.1]heptane-6-carboxamide] |  | 0.8 | 0.0001 to 1 |
| O=C(Nc1ccc(C2CC2)c(-c2ccccn2)c1)N1C2CCCC1C2 [Example 34, N-(4-cyclopropyl-3-(pyridin-2-yl)phenyl)-6-azabicyclo[3.1.1]heptane-6-carboxamide] | 1 to 10 | 1.1 |  |
| Cc1ccc(NC(=O)C2(C3CCC3)CC2)cc1-c1cccnn1 [Example 295, 1-cyclobutyl-N-(4-methyl-3-pyridazin-3-ylphenyl)cyclopropane-1-carboxamide] | > 10 | 13 |  |
| Cc1ccc(NC(=O)N2CCCC2c2ccn(C)n2)cc1-c1ccccn1 (racemic) [Example 88, 2-(1-methylpyrazol-3-yl)-N-(4-methyl-3-pyridin-2-ylphenyl)pyrrolidine-1-carboxamide] | > 10 | 11 |  |
| Cc1ccc(NC(=O)[C@@H]2C[C@@H]2C2CC2)cc1-c1cccnn1 (racemic) [Example 284, cis-2-cyclopropyl-N-(4-methyl-3-pyridazin-3-ylphenyl)cyclopropane-1-carboxamide] | 1 to 10 | 1.8 |  |
| Cc1ccc(NC(=O)C2CC3CC3CN2c2ccccn2)cc1-c1ncc(F)cn1 (mixture of isomers) [Example 260, N-(3-(5-fluoropyrimidin-2-yl)-4-methylphenyl)-3-(pyridin-2-yl)-3-azabicyclo[4.1.0]heptane-4-carboxamide] | 1 to 10 | 1.3 |  |
| Cc1ccc(NC(=O)[C@H]2CC[C@@H](C)CN2c2ncccn2)cc1-c1ncccn1 (racemic) [Example 327] |  | 0.5 | 0.0001 to 1 |
| Cc1cccc(-c2cc(NC(=O)[C@@H]3CC3(F)F)ccc2C)n1 [Example 163, (1S)-2,2-difluoro-N-[4-methyl-3-(6-methylpyridin-2-yl)phenyl]cyclopropane-1-carboxamide] | > 10 | 26 |  |
| Cc1ccc(NC(=O)[C@H]2C[C@H]3C[C@H]3N2)cc1-c1ncc(F)cn1 [Example 170, (1R,3R,5R)—N-(3-(5-fluoropyrimidin-2-yl)-4-methylphenyl)-2-azabicyclo[3.1.0]hexane-3-carboxamide] | 1 to 10 | 2.7 |  |
| Cc1ccc(NC(=O)N2C3CC2CN(C(C)C(F)(F)F)C3)cc1-c1ccccn1 (centres unmarked) [Example 2, N-(4-Methyl-3-(pyridin-2-yl)phenyl)-3-(1,1,1-trifluoropropan-2-yl)-3,6-diazabicyclo[3.1.1]heptane-6-carboxamide] |  | 0.7 | 0.0001 to 1 |

| Compound | IC50 [1] [µM] | IC50 [2] [µM] | IC50 [3] [µM] |
| --- | --- | --- | --- |
| C[C@@H]1C[C@@H]2C[C@H](C1)N2C(=O)Nc1cc(-c2nccnn2)c(Cl)cc1F [Example 323] |  | 0.2 | 0.0001 to 1 |
| Cc1ccc(NC(=O)N2C3CC2CN(CC(F)(F)F)C3)cc1-c1ccccn1 [Example 4, N-(4-methyl-3-(pyridin-2-yl)phenyl)-3-(2,2,2-trifluoroethyl)-3,6-diazabicyclo[3.1.1]heptane-6-carboxamide] |  | 0.4 | 0.0001 to 1 |
| Cc1ccc(NC(=O)[C@@H]2C[C@H]3CC[C@@H]2C3)cc1-c1ccccn1 (single isomer, unassigned) [Example 138, cis-N-(4-methyl-3-pyridin-2-ylphenyl)bicyclo[2.2.1]heptane-2-carboxamide] |  | 0.7 | 0.0001 to 1 |
| Cc1cc(F)c(NC(=O)N2[C@@H]3C[C@@H](C)C[C@H]2C3)cc1-c1cccnn1 [Example 256, cis-N-(2-fluoro-4-methyl-5-pyridazin-3-ylphenyl)-3-methyl-6-azabicyclo[3.1.1]heptane-6-carboxamide] |  | 0.1 | 0.0001 to 1 |
| CSc1ncc(N2[C@@H](C(=O)Nc3ccc(C)c(-c4ncc(F)cn4)c3)C[C@H]3C[C@H]32)nn1 [Example 172, (1R,3R,5R)—N-(3-(5-fluoropyrimidin-2-yl)-4-methylphenyl)-2-(3-(methylthio)-1,2,4-triazin-6-yl)-2-azabicyclo[3.1.0]hexane-3-carboxamide] | 1 to 10 | 6.2 |  |
| Cc1ccc(NC(=O)N2[C@@H]3C[C@@H](C)C[C@H]2C3)cc1-c1cncc(C(F)(F)F)n1 [Example 228, cis-3-methyl-N-[4-methyl-3-[6-(trifluoromethyl)pyrazin-2-yl]phenyl]-6-azabicyclo[3.1.1]heptane-6-carboxamide] |  | 0.09 | 0.0001 to 1 |
| Cc1ccc(NC(=O)[C@H]2C[C@@H](C(F)(F)F)CN2c2ncccn2)cc1-c1cccnn1 [Example 294, (2R,4R)-N-(4-methyl-3-pyridazin-3-ylphenyl)-1-pyrimidin-2-yl-4-(trifluoromethyl) pyrrolidine-2-carboxamide] | 1 to 10 | 9.4 |  |
| Cc1ccc(NC(=O)N2CC3CC2c2ccccc2O3)cc1-c1ccccn1 (centres unmarked) [Example 24, N-(4-methyl-3-(pyridin-2-yl)phenyl)-2,3-dihydro-2,5-methanobenzo[f][1,4]oxazepine-4(5H)-carboxamide] | 1 to 10 | 1.4 |  |
| COC(=O)[C@@H]1CC[C@@H]2C[C@H]1N2C(=O)Nc1ccc(C)c(-c2ccccn2)c1 (racemic) [Example 70, cis-methyl-6-((4-methyl-3-(pyridin-2-yl)phenyl)carbamoyl)-6-azabicyclo[3.1.1]heptane-2-carboxylate] | 1 to 10 | 1.9 |  |
| Cc1ccc(NC(=O)C2CCC[C@@H](C)N2c2ccccn2)cc1-c1ncc(F)cn1 (mixture of isomers) [Example 258, cis-N-(3-(5-fluoropyrimidin-2-yl)-4-methylphenyl)-6-methyl-1-(pyridin-2-yl)piperidine-2-carboxamide] | 1 to 10 | 2.4 |  |
| Cc1ccc(NC(=O)N2CCCC2c2cnn(C)c2)cc1-c1ccccn1 (racemic) [Example 90, 2-(1-methylpyrazol-4-yl)-N-(4-methyl-3-pyridin-2-ylphenyl)pyrrolidine-1-carboxamide] | > 10 | 14 |  |
| O=C(Nc1ccc(C2CC2)c(-c2ccc(F)cn2)c1)N1C2CCCC1C2 [Example 36, N-(4-cyclopropyl-3-(5-fluoropyridin-2-yl)phenyl)-6-azabicyclo[3.1.1]heptane-6-carboxamide] | 1 to 10 | 1.1 |  |
| Cc1ccc(NC(=O)[C@H]2C[C@@H]2c2ccccc2)cc1-c1ncc(F)cn1 (racemic) [Example 257, trans-N-(3-(5-fluoropyrimidin-2-yl)-4-methylphenyl)-2-phenylcyclopropane-1-carboxamide] | > 10 | 30 |  |
| Cc1ccc(NC(=O)N2C3C[C@@H](C)C[C@@H]2C3)cc1-c1ncc(F)cn1 [Example 50, trans-N-(3-(5-fluoropyrimidin-2-yl)-4-methylphenyl)-3-methyl-6-azabicyclo[3.1.1]heptane-6-carboxamide] |  | 0.02 | 0.0001 to 1 |
| CC(=O)N1[C@H](C)CC[C@@H]1C(=O)Nc1ccc(C)c(-c2ncc(F)cn2)c1 [Example 286, (2R,5R)-1-acetyl-N-[3-(5-fluoropyrimidin-2-yl)-4-methylphenyl]-5-methylpyrrolidine-2-carboxamide] | 1 to 10 | 1.7 |  |
